In this assay the target is T1, Human CaV2.2 channels (Homo sapiens, UniProt Q00975).
T1 construct: expressed in transfected cells; also stably expressing Kir2.3)
Briefly: Fluorescence assay for CaV2.2 channels using potassium depolarization to induce channel opening (FLIPR, Fluo 4). Format: cell-based. The following applies: 30 mM KCl assay buffer (inactivated channel state), HEK293 cells; for inhibition at 3 µM: HEK293, 3 μM test compound, read-out: Activity Category: %-Inhib (CaV2.2) @3 μM @30 mM KCl; for Activity Category: %-Inhib (CaV2.2) @3 μM @30 mM KCl: 3 μM test compound. An excerpt: In the process, the Ca^2+ influx is quantified in the FLIPR assay with the aid of a Ca^2+-sensitive dye (type Fluo-4, Molecular Probes Europe BV, Leiden, the Netherlands) in a fluorescent imaging plate reader (FLIPR 3, Molecular Devices, Sunnyvale, USA), as described hereinafter.
[drawing 69] 2. Assay Descriptions and Biological Data: 2.1 Fluorescence Assay for CaV2.2 Channels Using Potassium Depolarization to Induce Channel Opening
Human CaV2.2 channels were stably expressed in HEK293 cells together with alpha2-delta and beta subunits of voltage gated calcium channels. In addition, an inwardly rectifying potassium channel (Kir2.3) was stably expressed in these cells to augment control of the cell membrane potential by the concentration of extracellular potassium ions. Raise of the extracellular potassium concentration leads to depolarization of the membrane potential and thus regulates the voltage dependent state of CaV2.2 channels. For preparation, cells were seeded in black poly-D-lysine coated 96-well plates (Becton Dickinson, Biocoat 4640) in 100 μL medium [500 mL DMEM/F-12 plus Glutamax (Invitrogen 31331-093) plus 5.5 mL MEM NEAA 100× (Invitrogen 11140-035) plus 50 mL FBS decomplemented (Invitrogen 10270-106) plus 200 μg/mL Geneticin (Invitrogen 10131-027) plus 50 μg/mL Hygromycin B (Invitrogen 10687-010) plus 2 μg/mL Blasticidin (anti-b15b Invivo-Gen) plus 0.2 μg/mL Puromycin (A 11138-03)] at a cell density of 30.000 cells per well. Plates were incubated at 37° C. (5% CO2) for 20 to 23 h. On the day of experiment medium was discarded and cells were loaded with Fluo 4 by addition of 100 μL of basic assay buffer (10 mM HEPES, 1 mM KCl, 149 mM NaCl, 0.8 mM CaCl2, 1.7 mM MgCl2, 10 mM Glucose, 0.1% BSA. pH 7.4) containing 2 μM Fluo 4 (Molecular Probes; F-14201), 0.01% pluronic acid (Molecular Probes; P-6866) and 2.5 mM probenecid (Molecular Probes; P36400). Cells were incubated in the dark at 25° C. for 60 min. Then dye containing buffer was discarded and 100 μL basic (1 mM KCl) or alternative (30 mM KCl) assay buffer was added. The alternative assay buffer contained altered concentrations of KCl (30 mM) and NaCl (120 mM) and was used in order to promote the inactivated channel state. After that 25 μL of basic or alternative assay buffer with or without test compound were added and cells were incubated again in the dark at 25° C. for 15 min. Fluorescence intensity was measured on a FLIPR 3 instrument (Molecular Devices Corp., Sunnyvale, Calif.) with excitation at 480 nm and emission at 535 nm. After continuously reading fluorescence for 30 sec, 50 μL of basic assay buffer containing 210 mM KCl(NaCl omitted) were added for depolarization. Peak fluorescent signal intensity was determined and the amplitude of the peak signal, normalized to base line, was used to measure channel inhibition by test compounds.

Where only a bound is given, the exact number is not on record here.

T1 sequence (Q00975 whole entry): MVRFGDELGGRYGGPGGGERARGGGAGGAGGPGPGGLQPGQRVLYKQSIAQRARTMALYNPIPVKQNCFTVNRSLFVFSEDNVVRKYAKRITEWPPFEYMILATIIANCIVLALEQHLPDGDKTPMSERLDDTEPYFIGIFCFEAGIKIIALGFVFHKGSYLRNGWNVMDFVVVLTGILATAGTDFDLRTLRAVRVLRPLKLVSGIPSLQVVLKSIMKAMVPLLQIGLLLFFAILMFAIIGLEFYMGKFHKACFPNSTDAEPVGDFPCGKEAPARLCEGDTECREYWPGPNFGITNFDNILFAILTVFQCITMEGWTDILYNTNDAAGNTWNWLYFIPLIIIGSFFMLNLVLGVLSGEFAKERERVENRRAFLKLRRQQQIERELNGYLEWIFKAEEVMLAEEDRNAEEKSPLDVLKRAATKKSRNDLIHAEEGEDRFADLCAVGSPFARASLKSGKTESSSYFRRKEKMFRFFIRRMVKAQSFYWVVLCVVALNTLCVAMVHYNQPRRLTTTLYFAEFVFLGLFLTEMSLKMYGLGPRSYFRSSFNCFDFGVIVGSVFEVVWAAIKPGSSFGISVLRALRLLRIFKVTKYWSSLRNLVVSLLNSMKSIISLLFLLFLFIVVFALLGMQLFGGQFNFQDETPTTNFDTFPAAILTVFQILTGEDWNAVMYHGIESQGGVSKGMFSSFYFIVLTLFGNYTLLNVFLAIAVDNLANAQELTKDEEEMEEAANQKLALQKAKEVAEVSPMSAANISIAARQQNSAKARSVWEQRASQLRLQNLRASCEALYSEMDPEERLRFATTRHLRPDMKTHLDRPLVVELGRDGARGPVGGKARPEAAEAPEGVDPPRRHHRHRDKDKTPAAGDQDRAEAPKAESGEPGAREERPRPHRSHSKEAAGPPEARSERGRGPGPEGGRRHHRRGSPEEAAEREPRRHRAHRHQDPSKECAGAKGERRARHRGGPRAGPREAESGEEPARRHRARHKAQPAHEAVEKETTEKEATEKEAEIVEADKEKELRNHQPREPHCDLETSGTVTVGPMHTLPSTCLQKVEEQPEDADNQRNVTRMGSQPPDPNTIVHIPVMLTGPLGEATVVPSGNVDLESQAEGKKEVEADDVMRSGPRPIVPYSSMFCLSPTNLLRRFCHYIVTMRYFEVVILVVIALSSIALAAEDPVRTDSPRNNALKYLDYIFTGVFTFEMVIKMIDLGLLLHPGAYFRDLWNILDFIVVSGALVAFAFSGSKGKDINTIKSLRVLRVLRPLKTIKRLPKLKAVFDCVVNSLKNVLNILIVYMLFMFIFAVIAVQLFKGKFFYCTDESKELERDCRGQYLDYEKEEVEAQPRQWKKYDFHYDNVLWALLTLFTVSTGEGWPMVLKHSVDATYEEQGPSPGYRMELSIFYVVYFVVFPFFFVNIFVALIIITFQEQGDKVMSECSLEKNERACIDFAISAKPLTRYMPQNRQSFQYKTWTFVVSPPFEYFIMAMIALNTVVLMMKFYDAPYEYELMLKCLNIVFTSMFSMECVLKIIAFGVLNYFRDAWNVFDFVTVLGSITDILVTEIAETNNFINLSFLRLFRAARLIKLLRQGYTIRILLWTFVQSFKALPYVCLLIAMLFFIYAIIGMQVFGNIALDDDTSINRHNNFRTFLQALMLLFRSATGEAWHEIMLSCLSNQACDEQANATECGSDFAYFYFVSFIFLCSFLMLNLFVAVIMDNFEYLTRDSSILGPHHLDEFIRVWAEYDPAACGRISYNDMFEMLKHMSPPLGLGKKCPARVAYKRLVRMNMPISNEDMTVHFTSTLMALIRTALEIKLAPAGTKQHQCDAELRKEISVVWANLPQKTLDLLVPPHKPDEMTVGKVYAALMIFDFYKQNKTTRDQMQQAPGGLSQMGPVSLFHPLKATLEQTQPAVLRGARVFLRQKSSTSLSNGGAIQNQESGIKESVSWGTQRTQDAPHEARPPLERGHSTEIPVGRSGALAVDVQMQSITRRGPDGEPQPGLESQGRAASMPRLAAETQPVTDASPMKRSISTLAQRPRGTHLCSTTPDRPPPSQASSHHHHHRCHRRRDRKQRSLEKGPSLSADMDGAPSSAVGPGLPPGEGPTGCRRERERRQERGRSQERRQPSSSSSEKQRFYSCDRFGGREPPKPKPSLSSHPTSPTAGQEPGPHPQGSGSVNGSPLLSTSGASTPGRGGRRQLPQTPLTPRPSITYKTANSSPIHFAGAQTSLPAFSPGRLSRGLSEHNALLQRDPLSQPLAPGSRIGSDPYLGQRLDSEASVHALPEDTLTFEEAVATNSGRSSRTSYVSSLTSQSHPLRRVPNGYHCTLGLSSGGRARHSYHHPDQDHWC

Turning to `CC1(S(=O)(=O)c2cccc(C(F)(F)F)c2)CCOC(c2cc(OCC(F)F)n[nH]2)C1` (stereo not drawn) [Example 32 cis-EN1, 5-(2,2-Difluoro-ethoxy)-3-[4-methyl-4-[[3-(trifluoromethyl)phenyl]sulfonyl]-tetrahydro-pyran-2-yl]-1H-pyrazole], the inhibition at 3 µM is > 95%.

On to `CC1(S(=O)(=O)c2cccc(C(F)(F)F)c2)CCOC(c2cc(C(F)F)[nH]n2)C1` (stereo not drawn) [[cis-EN2] Example 12] [5-(Difluoro-methyl)-3-[4-methyl-4-[[3-(trifluoromethyl)phenyl]sulfonyl]-tetrahydro-pyran-2-yl]-1H-pyrazole], for which the “Activity Category: %-Inhib (CaV2.2) @3 μM @30 mM KCl” value (“Activity Category: %-Inhib” below) is recorded as “A (%-Inhibition >95%)”.

As to `CC(C)(C#N)c1cc(C2CC(C)(S(=O)(=O)c3cccc(C(F)(F)F)c3)CCO2)[nH]n1` (stereo not drawn) [Example 31 cis-EN1, 2-Methyl-2-[5-[4-methyl-4-[[3-(trifluoromethyl)phenyl]sulfonyl]-tetrahydro-pyran-2-yl]-1H-pyrazol-3-yl]-propionitrile], the inhibition at 3 µM is > 95%.

Consider `CC1(S(=O)(=O)c2cccc(C(F)(F)F)c2)CCOC(c2cc(CC(F)(F)F)n[nH]2)C1` (racemic) [Example 15 cis-rac, 5-[4-Methyl-4-[[3-(trifluoromethyl)phenyl]sulfonyl]-tetrahydro-pyran-2-yl]-3-(2,2,2-trifluoro-ethyl)-1H-pyrazole], for which the inhibition at 3 µM was > 95%.

Regarding `CC1(S(=O)(=O)c2cccc(C(F)(F)F)c2)CCOC(c2cc(OCC(F)(F)F)n[nH]2)C1` (stereo not drawn) [Example 16 cis-EN2, 5-[4-Methyl-4-[[3-(trifluoromethyl)phenyl]sulfonyl]-tetrahydro-pyran-2-yl]-3-(2,2,2-trifluoro-ethoxy)-1H-pyrazole], the inhibition at 3 µM was > 95%.

As for `CC1(S(=O)(=O)c2cccc(C(F)(F)F)c2)CCOC(c2cc(C3(O)COC3)n[nH]2)C1` (stereo not drawn) [Example 18 cis-EN1, 3-[5-[4-Methyl-4-[[3-(trifluoromethyl)phenyl]sulfonyl]-tetrahydro-pyran-2-yl]-1H-pyrazol-3-yl]-oxetan-3-ol], the inhibition at 3 µM fell in the range of 40 to 75%.

With `CC(C)(C)CS(=O)(=O)c1cc(C2CC(C)(S(=O)(=O)c3cccc(C(F)(F)F)c3)CCO2)[nH]n1` (stereo not drawn) [Example 36 cis-EN2, 3-(2,2-Dimethyl-propylsulfonyl)-5-[4-methyl-4-[[3-(trifluoromethyl)phenyl]sulfonyl]-tetrahydro-pyran-2-yl]-1H-pyrazole], the “Activity Category: %-Inhib” value is reported as “A (%-Inhibition >95%)”.

Take `CC(F)(F)c1cc(C2CC(C)(S(=O)(=O)c3cccc(C(F)(F)F)c3)CCO2)[nH]n1` (stereo not drawn) [Example 13 cis-EN1, 3-(1,1-Difluoro-ethyl)-5-[4-methyl-4-[[3-(trifluoromethyl)phenyl]sulfonyl]-tetrahydro-pyran-2-yl]-1H-pyrazole]: the inhibition at 3 µM is > 95%.

Consider `CC1(S(=O)(=O)c2cccc(C(F)(F)F)c2)CCOC(c2cc(S(=O)(=O)C(F)F)n[nH]2)C1` (stereo not drawn) [[cis-EN1] Example 1, 3-(Difluoro-methylsulfonyl)-5-[4-methyl-4-[[3-(trifluoromethyl)phenyl]sulfonyl]-tetrahydro-pyran-2-yl]-1H-pyrazole], for which the inhibition at 3 µM lay in the range of 75 to 95%.

For the molecule `CC(C)(C#N)c1cc(C2CC(C)(S(=O)(=O)c3cccc(C(F)(F)F)n3)CCO2)[nH]n1` (stereo not drawn) [Example 38 cis-EN1, 2-Methyl-2-[5-[4-methyl-4-[[6-(trifluoromethyl)-pyridin-2-yl]sulfonyl]-tetrahydro-pyran-2-yl]-1H-pyrazol-3-yl]-propionitrile], the “Activity Category: %-Inhib” value (listed as 38 cis-EN1) was “C (%-Inhibition >40% up to ≤75%)”.

For `CC1(S(=O)(=O)c2cccc(C(F)(F)F)c2)CCOC(c2cc(S(=O)(=O)C3COC3)n[nH]2)C1` (stereo not drawn) [Example 4 cis-EN2, 5-[4-Methyl-4-[[3-(trifluoromethyl)phenyl]sulfonyl]-tetrahydro-pyran-2-yl]-3-(oxetan-3-ylsulfonyl)-1H-pyrazole], the “Activity Category: %-Inhib” value (listed as 4 cis-EN2) is recorded as “B (%-Inhibition >75% up to ≤95%)”.

Turning to `CC1(S(=O)(=O)c2cccc(C(F)(F)F)c2)CCOC(c2cc(OCC(F)F)n[nH]2)C1` (stereo not drawn) [Example 32 cis-EN2, 5-(2,2-Difluoro-ethoxy)-3-[4-methyl-4-[[3-(trifluoromethyl)phenyl]sulfonyl]-tetrahydro-pyran-2-yl]-1H-pyrazole], the “Activity Category: %-Inhib” value was “B (%-Inhibition >75% up to ≤95%)”.

As to `CC1(S(=O)(=O)c2cccc(C(F)(F)F)c2)CCOC(c2cc(C(F)F)[nH]n2)C1` (stereo not drawn) [[cis-EN1] Example 12, 5-(Difluoro-methyl)-3-[4-methyl-4-[[3-(trifluoromethyl)phenyl]sulfonyl]-tetrahydro-pyran-2-yl]-1H-pyrazole], the inhibition at 3 µM was in the range of 75 to 95%.

Regarding `CC1(S(=O)(=O)c2cccc(C(F)(F)F)c2)CCOC(c2cc(CS(=O)(=O)C(F)F)n[nH]2)C1` (stereo not drawn) [Example 28 cis-EN1, 3-[(Difluoro-methylsulfonyl)-methyl]-5-[4-methyl-4-[[3-(trifluoromethyl)phenyl]sulfonyl]-tetrahydro-pyran-2-yl]-1H-pyrazole], the inhibition at 3 µM fell in the range of 75 to 95%.

As for `CC(C)(O)c1cc(C2CC(C)(S(=O)(=O)c3cccc(C(F)(F)F)c3)CCO2)[nH]n1` (stereo not drawn) [Example 19 cis-EN1, 2-[5-[4-Methyl-4-[[3-(trifluoromethyl)phenyl]sulfonyl]-tetrahydro-pyran-2-yl]-1H-pyrazol-3-yl]-propan-2-ol], the “Activity Category: %-Inhib” value (listed as 19 cis-EN1) is recorded as “B (%-Inhibition >75% up to ≤95%)”.

Regarding `CC1(S(=O)(=O)c2cccc(C(F)(F)F)c2)CCOC(c2cc(S(=O)(=O)C(F)(F)F)n[nH]2)C1` (stereo not drawn) [Example 27 cis-EN1, 3-(Trifluoro-methylsulfonyl)-5-[4-methyl-4-[[3-(trifluoromethyl)phenyl]sulfonyl]-tetrahydro-pyran-2-yl]-1H-pyrazole], the inhibition at 3 µM is > 95%.

Turning to `CC(C)(C(N)=O)c1cc(C2CC(C)(S(=O)(=O)c3cccc(C(F)(F)F)c3)CCO2)[nH]n1` (stereo not drawn) [Example 30 cis-EN2, 2-Methyl-2-[5-[4-methyl-4-[[3-(trifluoromethyl)phenyl]sulfonyl]-tetrahydro-pyran-2-yl]-1H-pyrazol-3-yl]-propionamide], the inhibition at 3 µM lay within 40 to 75%.

With `COCCS(=O)(=O)c1cc(C2CC(C)(S(=O)(=O)c3cccc(C(F)(F)F)c3)CCO2)[nH]n1` (stereo not drawn) [Example 5 cis-EN1, 3-(2-Methoxy-ethylsulfonyl)-5-[4-methyl-4-[[3-(trifluoromethyl)phenyl]sulfonyl]-tetrahydro-pyran-2-yl]-1H-pyrazole], the “Activity Category: %-Inhib” value (listed as 5 cis-EN1) is on record as “B (%-Inhibition >75% up to ≤95%)”.

`CC(C)(C#N)c1cc(C2CC(C)(S(=O)(=O)c3cccc(C(F)(F)F)n3)CCO2)[nH]n1` (stereo not drawn) [Example 38 cis-EN2, 2-Methyl-2-[5-[4-methyl-4-[[6-(trifluoromethyl)-pyridin-2-yl]sulfonyl]-tetrahydro-pyran-2-yl]-1H-pyrazol-3-yl]-propionitrile]: the “Activity Category: %-Inhib” value (listed as 38 cis-EN2) is reported as “B (%-Inhibition >75% up to ≤95%)”.

For the molecule `CC1(S(=O)(=O)c2cccc(C(F)(F)F)c2)CCOC(c2cc(S(=O)(=O)C(F)(F)F)n[nH]2)C1` (stereo not drawn) [Example 27 cis-EN2, 3-(Trifluoro-methylsulfonyl)-5-[4-methyl-4-[[3-(trifluoromethyl)phenyl]sulfonyl]-tetrahydro-pyran-2-yl]-1H-pyrazole], the “Activity Category: %-Inhib” value is recorded as “B (%-Inhibition >75% up to ≤95%)”.
